Measurements from ChEMBL document CHEMBL1201862, “PubChem BioAssay data set” (2004).
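Cultured in 96-well plates, cells were exposed to test compound for 48 hours across five concentrations. The concentration for 50% growth inhibition is given as GI50.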 Calls of active or inactive are those of the source. Rule as the data show it: active = GI50 up to about 1.1 µM and inactive = higher.

Tests used:
Assay in all cases: NCI tumour cell line growth inhibition, 48 h
786-0 = tested on: 786-0
A498 = tested on: A498
A549 = tested on: A549
ACHN = tested on: ACHN
BT-549 = tested on: BT-549
CAKI-1 = tested on: CAKI-1
CCRF-CEM = tested on: CCRF-CEM
COLO 205 = tested on: COLO 205
DU-145 = tested on: DU-145
EKVX = tested on: EKVX
HCC 2998 = tested on: HCC 2998
HCT-116 = tested on: HCT-116
HCT-15 = tested on: HCT-15
HL-60 = tested on: HL-60
HOP-62 = tested on: HOP-62
HOP-92 = tested on: HOP-92
HT-29 = tested on: HT-29
Hs-578T = tested on: Hs-578T
IGROV-1 = tested on: IGROV-1
K562 = tested on: K562
KM12 = tested on: KM12
M14 = tested on: M14
MCF7 = tested on: MCF7
MDA-MB-231 = tested on: MDA-MB-231
MDA-MB-435 = tested on: MDA-MB-435
MDA-N = tested on: MDA-N
MOLT-4 = tested on: MOLT-4
Malme-3M = tested on: Malme-3M
NCI-H226 = tested on: NCI-H226
NCI-H23 = tested on: NCI-H23
NCI-H460 = tested on: NCI-H460
NCI-H522 = tested on: NCI-H522
NCI/ADR-RES = tested on: NCI/ADR-RES
OVCAR-3 = tested on: OVCAR-3
OVCAR-4 = tested on: OVCAR-4
OVCAR-5 = tested on: OVCAR-5
OVCAR-8 = tested on: OVCAR-8
PC-3 = tested on: PC-3
RPMI-8226 = tested on: RPMI-8226
RXF 393 = tested on: RXF 393
SF-268 = tested on: SF-268
SF-295 = tested on: SF-295
SF-539 = tested on: SF-539
SK-MEL-28 = tested on: SK-MEL-28
SK-MEL-2 = tested on: SK-MEL-2
SK-MEL-5 = tested on: SK-MEL-5
SK-OV-3 = tested on: SK-OV-3
SN12C = tested on: SN12C
SNB-19 = tested on: SNB-19
SR = tested on: SR
T47D = tested on: T47D
TK-10 = tested on: TK-10
U-251 = tested on: U-251
UACC-257 = tested on: UACC-257
UACC-62 = tested on: UACC-62
UO-31 = tested on: UO-31
LOX IMVI = tested on: LOX IMVI
SW-620 = tested on: SW-620

Measured: GI50

Nc1c(-c2nc3ccccc3o2)sc(=S)n1-c1ccc(Cl)cc1
active: K562 0.474 µM | UACC-62 0.452 µM
inactive: 786-0 8.57 µM | A498 37.7 µM | A549 13.2 µM | ACHN 9.1 µM | BT-549 31 µM | CAKI-1 12.6 µM | CCRF-CEM > 100 µM | COLO 205 17.1 µM | DU-145 12 µM | EKVX 12.6 µM | HCC 2998 1.27 µM | HCT-116 12.3 µM | HL-60 > 100 µM | HOP-62 5.11 µM | HOP-92 21.7 µM | HT-29 37.4 µM | Hs-578T 12.8 µM | IGROV-1 17.7 µM | KM12 22.4 µM | M14 15.4 µM | MCF7 5.07 µM | MDA-MB-231 19.3 µM | MDA-MB-435 17.3 µM | MDA-N 21.4 µM | MOLT-4 > 100 µM | Malme-3M 19.1 µM | NCI-H226 13.9 µM | NCI-H23 13.9 µM | NCI-H460 23 µM | NCI-H522 14 µM | NCI/ADR-RES 19.3 µM | OVCAR-3 15.9 µM | OVCAR-4 11 µM | OVCAR-5 46.1 µM | OVCAR-8 12.1 µM | PC-3 21.7 µM | RPMI-8226 82.6 µM | RXF 393 23 µM | SF-268 12.9 µM | SF-295 10.6 µM | SF-539 11.6 µM | SK-MEL-28 13.9 µM | SK-MEL-2 11.2 µM | SK-MEL-5 17.2 µM | SK-OV-3 15.5 µM | SN12C 51.8 µM | SNB-19 13.7 µM | SR 51.5 µM | T47D 2.58 µM | TK-10 27.9 µM | U-251 15.6 µM | UACC-257 18 µM | UO-31 29.4 µM
26.1 µM: HCT-15

O=c1[nH]cc(/N=C/c2cc(Cl)ccc2O)c(=O)[nH]1
2.22 µM: HCT-15
inactive: 786-0 22 µM | A498 > 100 µM | A549 > 100 µM | ACHN 13.7 µM | BT-549 4.84 µM | CAKI-1 30.3 µM | CCRF-CEM 2.26 µM | COLO 205 25.3 µM | DU-145 21.6 µM | EKVX 32.1 µM | HCC 2998 23.6 µM | HCT-116 9.02 µM | HL-60 4.71 µM | HOP-62 20.6 µM | HOP-92 11.2 µM | HT-29 31.3 µM | Hs-578T 47.2 µM | IGROV-1 7.83 µM | K562 7.26 µM | KM12 26.2 µM | M14 13.8 µM | MCF7 17.7 µM | MDA-MB-231 19.6 µM | MDA-MB-435 29.1 µM | MDA-N 37.8 µM | MOLT-4 3.88 µM | Malme-3M 25.1 µM | NCI-H226 19.2 µM | NCI-H23 19 µM | NCI-H460 48.8 µM | NCI-H522 31.7 µM | NCI/ADR-RES 13.1 µM | OVCAR-3 17.5 µM | OVCAR-4 2.18 µM | OVCAR-5 22.4 µM | OVCAR-8 4.35 µM | PC-3 8.83 µM | RPMI-8226 5.93 µM | RXF 393 81.7 µM | SF-268 5.62 µM | SF-295 14.1 µM | SF-539 1.89 µM | SK-MEL-28 13.6 µM | SK-MEL-2 19.1 µM | SK-MEL-5 20.1 µM | SK-OV-3 18.7 µM | SN12C 9.04 µM | SNB-19 20.7 µM | SR 1.85 µM | T47D 14.8 µM | TK-10 > 100 µM | U-251 8.05 µM | UACC-257 58.7 µM | UACC-62 21.9 µM | UO-31 29.6 µM

CCCCc1ccc(Nc2nc3c(ncn3C3OC(COC(C)=O)C(OC(C)=O)C3OC(C)=O)c(=O)[nH]2)cc1 (centres undefined)
inactive: 786-0 17.2 µM | A498 > 100 µM | A549 92.7 µM | ACHN 65 µM | BT-549 17.8 µM | CAKI-1 > 100 µM | CCRF-CEM 16.3 µM | COLO 205 17.6 µM | DU-145 31.3 µM | EKVX 36.7 µM | HCC 2998 20.7 µM | HCT-116 17.1 µM | HL-60 26.2 µM | HOP-62 17.8 µM | HOP-92 16.1 µM | HT-29 19.1 µM | Hs-578T 22.9 µM | IGROV-1 17.5 µM | K562 15.1 µM | KM12 18.4 µM | LOX IMVI 18.5 µM | M14 20.6 µM | MCF7 23 µM | MDA-MB-231 16.7 µM | MDA-MB-435 19.9 µM | MDA-N 19.5 µM | MOLT-4 18.7 µM | Malme-3M 19.4 µM | NCI-H226 21.1 µM | NCI-H23 17.4 µM | NCI-H460 18.3 µM | NCI-H522 18 µM | NCI/ADR-RES > 100 µM | OVCAR-3 15.3 µM | OVCAR-4 21.9 µM | OVCAR-5 79.6 µM | OVCAR-8 18.4 µM | PC-3 19.7 µM | RPMI-8226 20.4 µM | RXF 393 19.1 µM | SF-268 19.4 µM | SF-295 21.2 µM | SF-539 26.2 µM | SK-MEL-2 15.7 µM | SK-MEL-5 17.4 µM | SK-OV-3 27 µM | SN12C 24.2 µM | SNB-19 27.7 µM | SR 13.5 µM | SW-620 25.1 µM | T47D 13.7 µM | TK-10 45.3 µM | U-251 21 µM | UACC-257 18.9 µM | UACC-62 19 µM | UO-31 > 100 µM
> 100 µM: HCT-15
